Source: ChEMBL document CHEMBL3885881, “DrugMatrix”

Organism: Rattus norvegicus
Assay: DrugMatrix - Regimen: Daily Repeat
Type: toxicity, organism-based, Sprague-Dawley
Design: regimen Daily Repeat, gender Male, age 6-8 weeks
Details: in vivo, po, route oral GAVAGE, […]; for ABSOLUTE BASOPHIL / ABSOLUTE EOSINOPHIL / ABSOLUTE LYMPHOCYTE / ABSOLUTE MONOCYTE / ABSOLUTE SEGMENTED NEUTROPHIL / BASOPHIL / EOSINOPHIL / ERYTHROCYTE COUNT / HEMATOCRIT / HEMOGLOBIN / LEUKOCYTE COUNT / LYMPHOCYTE / MEAN CORPUSCULAR HEMOGLOBIN / MEAN CORPUSCULAR HEMOGLOBIN CONCENTRATION / MEAN CORPUSCULAR VOLUME / MONOCYTE / NEUTROPHIL / NUCLEATED RED BLOOD CELLS / PLATELET COUNT: tissue Blood; for ALANINE AMINOTRANSFERASE / ALBUMIN / ALKALINE PHOSPHATASE / ASPARTATE AMINOTRANSFERASE / BLOOD UREA NITROGEN / CARBON DIOXIDE / CHLORIDE / CHOLESTEROL / CREATINE PHOSPHOKINASE / CREATININE / GLUCOSE / LACTATE DEHYDROGENASE / LIPASE / PHOSPHORUS / POTASSIUM / SODIUM / TOTAL BILIRUBIN / TOTAL PROTEIN / URIC ACID: tissue Plasma
[1] = 0 mg/kg, 72 h, dose level Control, time 3 day
[2] = 0 mg/kg, 120 h, dose level Control, time 5 day
[3] = 2 mg/kg, 72 h, dose level High, time 3 day

Compound: COc1ccc2c(c1)c(CC(=O)OCC(=O)O)c(C)n2C(=O)c1ccc(Cl)cc1 [ACEMETACIN]
- ABSOLUTE BASOPHIL [1]: 0 CELLS/uL
- ABSOLUTE EOSINOPHIL [1]: 138.5 CELLS/uL
- ABSOLUTE LYMPHOCYTE [1]: 13978.67 CELLS/uL
- ABSOLUTE MONOCYTE [1]: 391 CELLS/uL
- ABSOLUTE SEGMENTED NEUTROPHIL [1]: 1608.5 CELLS/uL
- BASOPHIL [1]: 0%
- EOSINOPHIL [1]: 1%
- ERYTHROCYTE COUNT [1]: 5.8 x10E6/uL
- HEMATOCRIT [1]: 36.22%
- HEMOGLOBIN [1]: 13.65 G/DL
- LEUKOCYTE COUNT [1]: 16.12 x10E3/uL
- LYMPHOCYTE [1]: 86.67%
- MEAN CORPUSCULAR HEMOGLOBIN [1]: 23.58 pg
- MEAN CORPUSCULAR HEMOGLOBIN CONCENTRATION [1]: 37.72 G/DL
- MEAN CORPUSCULAR VOLUME [1]: 62.52 fL
- MONOCYTE [1]: 2.5%
- NEUTROPHIL [1]: 9.83%
- NUCLEATED RED BLOOD CELLS [1]: 0 /100WBC
- PLATELET COUNT [1]: 1214.17 x10E3/uL
- ALANINE AMINOTRANSFERASE [1]: 59.5 u/L
- ALBUMIN [1]: 4.1 G/DL
- ALKALINE PHOSPHATASE [1]: 393.83 u/L
- ASPARTATE AMINOTRANSFERASE [1]: 87.83 u/L
- BLOOD UREA NITROGEN [1]: 16.33 mg/dL
- CARBON DIOXIDE [1]: 28.17 mmol/L
- CHLORIDE [1]: 100.83 MEQ/L
- CHOLESTEROL [1]: 73.33 mg/dL
- CREATINE PHOSPHOKINASE [1]: 398 u/L
- CREATININE [1]: 0.2 mg/dL
- GLUCOSE [1]: 152.67 mg/dL
- LACTATE DEHYDROGENASE [1]: 501.5 u/L
- LIPASE [1]: 9.5 u/L
- PHOSPHORUS [1]: 10.77 mg/dL
- POTASSIUM [1]: 6.44 MEQ/L
- SODIUM [1]: 143.4 MEQ/L
- TOTAL BILIRUBIN [1]: 0.17 mg/dL
- TOTAL PROTEIN [1]: 5.92 G/DL
- URIC ACID [1]: 1.68 mg/dL
- ABSOLUTE BASOPHIL [2]: 0 CELLS/uL
- ABSOLUTE EOSINOPHIL [2]: 183.33 CELLS/uL
- ABSOLUTE LYMPHOCYTE [2]: 14952.83 CELLS/uL
- ABSOLUTE MONOCYTE [2]: 238.5 CELLS/uL
- ABSOLUTE SEGMENTED NEUTROPHIL [2]: 1642 CELLS/uL
- BASOPHIL [2]: 0%
- EOSINOPHIL [2]: 1%
- ERYTHROCYTE COUNT [2]: 5.89 x10E6/uL
- HEMATOCRIT [2]: 36.13%
- HEMOGLOBIN [2]: 13.37 G/DL
- LEUKOCYTE COUNT [2]: 17.02 x10E3/uL
- LYMPHOCYTE [2]: 87.17%
- MEAN CORPUSCULAR HEMOGLOBIN [2]: 22.73 pg
- MEAN CORPUSCULAR HEMOGLOBIN CONCENTRATION [2]: 37.02 G/DL
- MEAN CORPUSCULAR VOLUME [2]: 61.45 fL
- MONOCYTE [2]: 1.5%
- NEUTROPHIL [2]: 10.33%
- NUCLEATED RED BLOOD CELLS [2]: 0 /100WBC
- PLATELET COUNT [2]: 1183.5 x10E3/uL
- ALANINE AMINOTRANSFERASE [2]: 54.83 u/L
- ALBUMIN [2]: 4.28 G/DL
- ALKALINE PHOSPHATASE [2]: 363.17 u/L
- ASPARTATE AMINOTRANSFERASE [2]: 96.83 u/L
- BLOOD UREA NITROGEN [2]: 15.67 mg/dL
- CARBON DIOXIDE [2]: 26.17 mmol/L
- CHLORIDE [2]: 102.67 MEQ/L
- CHOLESTEROL [2]: 63.67 mg/dL
- CREATINE PHOSPHOKINASE [2]: 594.33 u/L
- CREATININE [2]: 0.2 mg/dL
- GLUCOSE [2]: 182.33 mg/dL
- LACTATE DEHYDROGENASE [2]: 656.5 u/L
- LIPASE [2]: 9.33 u/L
- PHOSPHORUS [2]: 11.7 mg/dL
- POTASSIUM [2]: 5.92 MEQ/L
- SODIUM [2]: 142.62 MEQ/L
- TOTAL BILIRUBIN [2]: 0.13 mg/dL
- TOTAL PROTEIN [2]: 5.85 G/DL
- URIC ACID [2]: 1.8 mg/dL
- ABSOLUTE BASOPHIL [3]: 0 CELLS/uL
- ABSOLUTE EOSINOPHIL [3]: 380 CELLS/uL
- ABSOLUTE LYMPHOCYTE [3]: 13622 CELLS/uL
- ABSOLUTE MONOCYTE [3]: 500 CELLS/uL
- ABSOLUTE SEGMENTED NEUTROPHIL [3]: 2164.67 CELLS/uL
- BASOPHIL [3]: 0%
- EOSINOPHIL [3]: 2.33%
- ERYTHROCYTE COUNT [3]: 5.07 x10E6/uL
- HEMATOCRIT [3]: 32.77%
- HEMOGLOBIN [3]: 12.63 G/DL
- LEUKOCYTE COUNT [3]: 16.67 x10E3/uL
- LYMPHOCYTE [3]: 81.67%
- MEAN CORPUSCULAR HEMOGLOBIN [3]: 24.97 pg
- MEAN CORPUSCULAR HEMOGLOBIN CONCENTRATION [3]: 38.57 G/DL
- MEAN CORPUSCULAR VOLUME [3]: 64.77 fL
- MONOCYTE [3]: 3%
- NEUTROPHIL [3]: 13%
- NUCLEATED RED BLOOD CELLS [3]: 0.33 /100WBC
- PLATELET COUNT [3]: 1026.67 x10E3/uL
- ALANINE AMINOTRANSFERASE [3]: 66.67 u/L
- ALBUMIN [3]: 4.07 G/DL
- ALKALINE PHOSPHATASE [3]: 414.67 u/L
- ASPARTATE AMINOTRANSFERASE [3]: 86 u/L
- BLOOD UREA NITROGEN [3]: 15 mg/dL
- CARBON DIOXIDE [3]: 28.67 mmol/L
- CHLORIDE [3]: 101.67 MEQ/L
- CHOLESTEROL [3]: 68 mg/dL
- CREATINE PHOSPHOKINASE [3]: 297.67 u/L
- CREATININE [3]: 0.19 mg/dL
- GLUCOSE [3]: 146.67 mg/dL
- LACTATE DEHYDROGENASE [3]: 197.67 u/L
- LIPASE [3]: 9.33 u/L
- PHOSPHORUS [3]: 10.4 mg/dL
- POTASSIUM [3]: 6.36 MEQ/L
- SODIUM [3]: 141.2 MEQ/L
- TOTAL BILIRUBIN [3]: 0.17 mg/dL
- TOTAL PROTEIN [3]: 5.47 G/DL
- URIC ACID [3]: 1.13 mg/dL
